Read-outs that look alike come from different tables or passages of the source. Positions of bridges follow the written chain, without caps; N, C: chain ends. Non-standard residues stand in square brackets, D forms with d. Residues, ends and D or L forms follow the SMILES beside them. ξ: configuration not given here. Phe(3,4,5-F3) = N[C@@H](Cc1cc(F)c(F)c(F)c1)C(=O)O; d(cisHyp) = O=C(O)[C@H]1C[C@@H](O)CN1; NMeF = CN[C@@H](Cc1ccccc1)C(=O)O; NMeNle = CCCC[C@H](NC)C(=O)O; dPip = O=C(O)[C@H]1CCCCN1; NMeA = CN[C@@H](C)C(=O)O; ξP = O=C(O)C1CCCN1; Sar = CNCC(=O)O
Assays:
CMV-specific T cells [1] = details: read-out: EC50, IFNγ secretion by CMV-specific T cells; FIG. 10A-C
Hu PD-L1/PD-1 = Hu PD-L1/PD-1 (Homo sapiens, UniProt Q9NZQ7); assay: Cell binding assay Hu PD-L1/PD-1 (Tables 11-13, cell line not given); format: cell-based; details: Table 11
How it was run: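 Three formats. In the L2987 imaging assay, natively PD-L1-expressing cells received inhibitor and PE-PD-1-Ig for 1 h at 37 °C, followed by fixation and nuclear Hoechst staining. In the flow-cytometry assays, LK35.2 cells overexpressing hPD-L1 were pre-treated 15 min with inhibitor, then bound 2 nM PE-PD-1-Ig for 1 h at RT in RPMI/2% FCS, while Jurkat-PD-1 cells bound PE-PD-L1-Ig.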

Human PD-L1/PD-1 = target: T1, Human PD-L1/PD-1 (Homo sapiens, UniProt Q9NZQ7); assay: HTRF PD-1-Ig/PD-L1-His binding assay (human PD-L1)
T1 construct: made in house; host or cells: HEK293T
How it was run: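 Steps: truncated PD-1-Ig and PD-L1-His fusions are incubated in dPBS containing 0.1% (w/v) BSA and 0.05% (v/v) Tween-20. Detection antibodies are then added (Eu cryptate anti-Ig at 1 nM final, APC anti-His at 20 nM final), and time-resolved FRET is measured.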

CMV-specific T cells [2] = target: CMV-specific T cells (Homo sapiens, UniProt Q9NZQ7); assay: CMV-specific T cell function assay (IFNγ secretion, ELISA); format: cell-based; details: read-out: CMV Recall EC50 cluster; cluster symbol
Method: CMV-specific T Cell Function Assay. […] AIM-V medium (Life Technologies, Grand Island, N.Y.) supplemented with 10% heat-inactivated fetal bovine serum (FBS, Sigma, St Louis, Mo.) was used at a total volume of 200 µL/well in triplicate. The cells were cultured for 4 days at 37° C., 5% CO2 at which time culture supernatant was harvested for determination of secreted IFNγ by ELISA (OptEIA hIFNγ ELISA Kit, BD Biosciences, San Jose, Calif.).

[3] = target: T2, LK35.2-hPD-L1 cells / PE-labeled PD-1-Ig (Homo sapiens, UniProt Q9NZQ7); assay: LK35.2-hPD-L1 cell binding high-content screening assay; format: cell-based; details: cell binding assay, cell line not given; cluster symbol; read-out: CBA IC50 cluster
T2 construct: expressed in transfected cells; host or cells: LK35.2 mouse B cell line
How it was run: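 Compound effect on PD-1/PD-L1 binding is measured by imaging cell-associated phycoerythrin signal. Human PD-1-Ig (PE on Ig tag, 1 nM final) is applied with compound to a murine B cell line overexpressing human PD-L1 for 1 h at 37 °C in serum-containing RPMI.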

[4] = Table 6, read-out: HTRF Human PD-L1/PD-1 Binding Assay IC50

T1 sequence (Q9NZQ7 with tags, fused parts or gaps): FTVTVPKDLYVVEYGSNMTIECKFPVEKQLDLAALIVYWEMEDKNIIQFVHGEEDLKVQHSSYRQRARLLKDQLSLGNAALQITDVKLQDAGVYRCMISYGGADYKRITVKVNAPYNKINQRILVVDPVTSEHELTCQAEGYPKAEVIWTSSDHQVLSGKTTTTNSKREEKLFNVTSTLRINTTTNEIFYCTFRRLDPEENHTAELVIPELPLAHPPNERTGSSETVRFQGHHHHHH
Sequence of Hu PD-L1/PD-1 (Q9NZQ7 19-290): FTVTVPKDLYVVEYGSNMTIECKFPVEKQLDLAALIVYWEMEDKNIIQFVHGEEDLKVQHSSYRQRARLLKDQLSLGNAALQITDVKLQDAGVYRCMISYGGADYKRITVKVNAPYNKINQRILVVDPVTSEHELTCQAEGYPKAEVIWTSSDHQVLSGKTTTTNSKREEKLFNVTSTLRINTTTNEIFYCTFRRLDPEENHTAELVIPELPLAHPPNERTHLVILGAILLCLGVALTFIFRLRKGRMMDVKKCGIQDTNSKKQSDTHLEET
T2 sequence (Q9NZQ7 19-290): as above
Sequence of CMV-specific T cells (Homo sapiens, UniProt Q9NZQ7) (Q9NZQ7 19-290): as above

Row | SMILES | EC50 (CMV-specific T cells [1]) | IC50 (Hu PD-L1/PD-1) | IC50 (Human PD-L1/PD-1; [4]) | further results
1 | CCCC[C@H]1C(=O)N(C)CC(=O)N[C@@H](CC(=O)O)C(=O)N[C@@H](C(C)C)C(=O)N(C)[C@@H](Cc2ccccc2)C(=O)N[C@@H](Cc2ccc(O)cc2)C(=O)N(C)CC(=O)N[C@@H](Cc2c[nH]c3ccccc23)C(=O)N[C@@H](Cc2ccc(O)cc2)C(=O)N[C@@H](CC(C)C)C(=O)N[C@H](C(=O)NCC(N)=O)CSCC(=O)N[C@@H](Cc2ccccc2)C(=O)N(C)[C@@H](Cc2ccccc2)C(=O)N1C [Compound No. 71] (HELM PEPTIDE1{[O=C(C[*:3])[*:2]].F.[meF].[CCCC[C@@H](C(=O)[*:2])N(C)[*:1]].[Sar].D.V.[meF].Y.[Sar].W.Y.L.C.G.[am]}$PEPTIDE1,PEPTIDE1,1:R3-14:R3$$$V2.0) | 300 nM | 10 nM | 7 nM | IC50 (Human PD-L1/PD-1; Table 9, Compound No. 71 variant macrocyclic peptides, read-out: HTRF Human PD-L1/PD-1 Binding Assay IC50): 7 nM
2 | CC[C@H](C)[C@@H]1NC(=O)[C@H](CC(C)C)NC(=O)[C@H](Cc2ccccc2)NC(=O)CSC[C@@H](C(=O)NCC(N)=O)NC(=O)[C@H](CCCNC(=N)N)NC(=O)[C@H](Cc2ccccc2)NC(=O)[C@H](C(C)C)NC(=O)[C@H](CCCNC(=N)N)NC(=O)[C@H](CC(=O)O)NC(=O)[C@H](CCCNC(=N)N)NC(=O)[C@H]([C@@H](C)CC)NC(=O)[C@H](C(C)C)NC1=O [Compound No. 99] (HELM PEPTIDE1{[O=C(C[*:3])[*:2]].F.L.I.V.I.R.D.R.V.F.R.C.G.[am]}$PEPTIDE1,PEPTIDE1,1:R3-13:R3$$$V2.0) | > 10000 nM | – | 153 nM | IC50 (Human PD-L1/PD-1; Table 7, Compound No. 99 variant macrocyclic peptides, read-out: HTRF Human PD-L1/PD-1 Binding Assay IC50): 153 nM
3 | CCCC[C@H]1C(=O)N(C)[C@@H](CCCC)C(=O)N[C@@H](CC(C)C)C(=O)N[C@H](C(=O)NCC(N)=O)CSCC(=O)N[C@@H](Cc2ccccc2)C(=O)N(C)[C@@H](C)C(=O)N[C@@H](CC(N)=O)C(=O)N2CCCC2C(=O)N[C@@H](Cc2cnc[nH]2)C(=O)N[C@@H](Cc2c[nH]cn2)C(=O)N[C@@H](CO)C(=O)N[C@@H](Cc2c[nH]c3ccccc23)C(=O)N[C@@H](CCCNC(=N)N)C(=O)N[C@@H](Cc2c[nH]c3ccccc23)C(=O)N1C (stereo partly drawn) [Compound No. 2] ({CH2CO}-F[NMeA]N[ξP]HHSWRW[NMeNle][NMeNle]LCG-NH2; thioether N-14) | 400 nM | 43 nM | – | –
4 | CCCC[C@H]1C(=O)N(C)[C@@H](CCCC)C(=O)N[C@@H](CCCNC(=N)N)C(=O)N[C@H](C(=O)NCC(N)=O)CSCC(=O)N[C@@H](Cc2ccccc2)C(=O)N(C)[C@@H](C)C(=O)N[C@@H](CC(N)=O)C(=O)N2CCCC2C(=O)N[C@@H](Cc2cnc[nH]2)C(=O)N[C@@H](CC(C)C)C(=O)N(C)CC(=O)N[C@@H](Cc2c[nH]c3ccccc23)C(=O)N[C@@H](CO)C(=O)N[C@@H](Cc2c[nH]c3ccccc23)C(=O)N1C (stereo partly drawn) [Compound No. 1] ({CH2CO}-F[NMeA]N[ξP]HL[Sar]WSW[NMeNle][NMeNle]RCG-NH2; thioether N-14) | 400 nM | – | 9 nM | IC50 (Human PD-L1/PD-1; Table 8, Compound No. 1 variant macrocyclic peptides, read-out: HTRF Human PD-L1/PD-1 Binding Assay IC50): 9 nM
5 | CCCC[C@H]1C(=O)N2C[C@H](O)C[C@@H]2C(=O)N[C@@H](CC(=O)O)C(=O)N[C@@H](C(C)C)C(=O)N(C)[C@@H](Cc2ccccc2)C(=O)N[C@@H](Cc2ccc(O)cc2)C(=O)N2CCCC[C@@H]2C(=O)N[C@@H](Cc2c[nH]c3ccccc23)C(=O)N[C@@H](Cc2ccc(O)cc2)C(=O)N[C@@H](CC(C)C)C(=O)N[C@H](C(=O)NCC(N)=O)CSCC(=O)N[C@@H](Cc2cc(F)c(F)c(F)c2)C(=O)N(C)[C@@H](Cc2ccccc2)C(=O)N1C [Example 3590] ({CH2CO}-[Phe(3,4,5-F3)][NMeF][NMeNle][d(cisHyp)]DV[NMeF]Y[dPip]WYLCG-NH2; thioether N-13) | – | – | – | EC50 (CMV-specific T cells [2]): 1000 nM; IC50 [3]: 0.158 to 4.71 nM; IC50 (Human PD-L1/PD-1; cluster symbol, read-out: HTRF IC50 cluster): 0.385 to 6.74 nM

Source: patent US9850283B2, “Macrocyclic inhibitors of the PD-1/PD-L1 and CD80(B7-1)/PD-L1 protein/protein interactions” (BRISTOL-MYERS SQUIBB COMPANY, priority 2013, dated 2017)
